Columns and labels:
[1] = The drug is tested on Z-019 corresponding to rat gut metagenome with ENA study accession number: PRJEB37062 and ENA sample accession number: ERS12561818 for biotransformation under anaerobic condition. The drug concentrations were measured over 9 timepoints collected between 0 and 24 hours of incubation by liquid-chromatography-coupled mass spectrometry (LC–MS); conditions: 2 µM
[2] = The drug is tested on Z-002 corresponding to rabbit gut metagenome with ENA study accession number: PRJEB37062 and ENA sample accession number: ERS12561802 for biotransformation under anaerobic condition. The drug concentrations were measured over 9 timepoints collected between 0 and 24 hours of incubation by liquid-chromatography-coupled mass spectrometry (LC–MS); conditions: 2 µM
[3] = human gut metagenome, 24 h, 2 µM
[4] = human gut metagenome, 24 h, 2 µM; remark: listed apart in the source
[5] = human gut metagenome, 24 h, 2 µM; remark: listed apart in the source
[6] = The drug is tested on Z-006 corresponding to mouse gut metagenome with ENA study accession number: PRJEB37062 and ENA sample accession number: ERS12561806 for biotransformation under anaerobic condition. The drug concentrations were measured over 9 timepoints collected between 0 and 24 hours of incubation by liquid-chromatography-coupled mass spectrometry (LC–MS); conditions: 2 µM
[7] = The drug is tested on Z-020 corresponding to rabbit gut metagenome with ENA study accession number: PRJEB37062 and ENA sample accession number: ERS12561819 for biotransformation under anaerobic condition. The drug concentrations were measured over 9 timepoints collected between 0 and 24 hours of incubation by liquid-chromatography-coupled mass spectrometry (LC–MS); conditions: 2 µM
[8] = human gut metagenome, 24 h, 2 µM; remark: listed apart in the source
[9] = human gut metagenome, 24 h, 2 µM; remark: listed apart in the source
[10] = human gut metagenome, 24 h, 2 µM; remark: listed apart in the source
[11] = The drug is tested on Z-012 corresponding to metagenome with ENA study accession number: PRJEB37062 and ENA sample accession number: ERS12561812 for biotransformation under anaerobic condition. The drug concentrations were measured over 9 timepoints collected between 0 and 24 hours of incubation by liquid-chromatography-coupled mass spectrometry (LC–MS); conditions: 2 µM
[12] = The drug is tested on Z-021 corresponding to metagenome with ENA study accession number: PRJEB37062 and ENA sample accession number: ERS12561820 for biotransformation under anaerobic condition. The drug concentrations were measured over 9 timepoints collected between 0 and 24 hours of incubation by liquid-chromatography-coupled mass spectrometry (LC–MS); conditions: 2 µM
[13] = human gut metagenome, 24 h, 2 µM; remark: listed apart in the source
[14] = human gut metagenome, 24 h, 2 µM; remark: listed apart in the source
[15] = human gut metagenome, 24 h, 2 µM; remark: listed apart in the source
[16] = The drug is tested on Z-005 corresponding to metagenome with ENA study accession number: PRJEB37062 and ENA sample accession number: ERS12561805 for biotransformation under anaerobic condition. The drug concentrations were measured over 9 timepoints collected between 0 and 24 hours of incubation by liquid-chromatography-coupled mass spectrometry (LC–MS); conditions: 2 µM
[17] = The drug is tested on Z-023 corresponding to metagenome with ENA study accession number: PRJEB37062 and ENA sample accession number: ERS12561822 for biotransformation under anaerobic condition. The drug concentrations were measured over 9 timepoints collected between 0 and 24 hours of incubation by liquid-chromatography-coupled mass spectrometry (LC–MS); conditions: 2 µM
[18] = human gut metagenome, 24 h, 2 µM; remark: listed apart in the source
[19] = human gut metagenome, 24 h, 2 µM; remark: listed apart in the source
[20] = human gut metagenome, 24 h, 2 µM; remark: listed apart in the source
Further: call rule not given here.

CCCc1nc2c(C)cc(-c3nc4ccccc4n3C)cc2n1Cc1ccc(-c2ccccc2C(=O)O)cc1
Bacterial Biotransformation [1]: Compound NOT metabolized | Bacterial Biotransformation [2]: Compound metabolized | Bacterial Biotransformation [3]: Compound metabolized | Bacterial Biotransformation [4]: Compound metabolized | Bacterial Biotransformation [5]: Compound NOT metabolized | Bacterial Biotransformation [6]: Compound metabolized | Bacterial Biotransformation [7]: Compound metabolized | Bacterial Biotransformation [8]: Compound metabolized | Bacterial Biotransformation [9]: Compound metabolized | Bacterial Biotransformation [10]: Compound metabolized | Bacterial Biotransformation [11]: Compound metabolized | Bacterial Biotransformation [12]: Compound metabolized | Bacterial Biotransformation [13]: Compound metabolized | Bacterial Biotransformation [14]: Compound metabolized | Bacterial Biotransformation [15]: Compound metabolized | Bacterial Biotransformation [16]: Compound metabolized | Bacterial Biotransformation [17]: Compound metabolized | Bacterial Biotransformation [18]: Compound metabolized | Bacterial Biotransformation [19]: Compound metabolized | Bacterial Biotransformation [20]: Compound metabolized

CCCCC(=O)N(Cc1ccc(-c2ccccc2-c2nnn[nH]2)cc1)[C@H](C(=O)O)C(C)C
Bacterial Biotransformation [1]: Compound NOT metabolized | Bacterial Biotransformation [2]: Compound NOT metabolized | Bacterial Biotransformation [3]: Compound metabolized | Bacterial Biotransformation [4]: Compound metabolized | Bacterial Biotransformation [5]: Compound metabolized | Bacterial Biotransformation [6]: Compound NOT metabolized | Bacterial Biotransformation [7]: Compound NOT metabolized | Bacterial Biotransformation [8]: Compound metabolized | Bacterial Biotransformation [9]: Compound metabolized | Bacterial Biotransformation [10]: Compound metabolized | Bacterial Biotransformation [11]: Compound NOT metabolized | Bacterial Biotransformation [12]: Compound metabolized | Bacterial Biotransformation [13]: Compound metabolized | Bacterial Biotransformation [14]: Compound metabolized | Bacterial Biotransformation [15]: Compound metabolized | Bacterial Biotransformation [16]: Compound NOT metabolized | Bacterial Biotransformation [17]: Compound NOT metabolized | Bacterial Biotransformation [18]: Compound metabolized | Bacterial Biotransformation [19]: Compound metabolized | Bacterial Biotransformation [20]: Compound metabolized

CCC(COC(=O)c1cc(OC)c(OC)c(OC)c1)(c1ccccc1)N(C)C.O=C(O)/C=C\C(=O)O (stereo unspecified)
Bacterial Biotransformation [1]: Compound NOT metabolized | Bacterial Biotransformation [2]: Compound NOT metabolized | Bacterial Biotransformation [3]: Compound NOT metabolized | Bacterial Biotransformation [4]: Compound metabolized | Bacterial Biotransformation [5]: Compound metabolized | Bacterial Biotransformation [6]: Compound NOT metabolized | Bacterial Biotransformation [7]: Compound metabolized | Bacterial Biotransformation [8]: Compound NOT metabolized | Bacterial Biotransformation [9]: Compound NOT metabolized | Bacterial Biotransformation [10]: Compound metabolized | Bacterial Biotransformation [11]: Compound NOT metabolized | Bacterial Biotransformation [12]: Compound metabolized | Bacterial Biotransformation [13]: Compound NOT metabolized | Bacterial Biotransformation [14]: Compound metabolized | Bacterial Biotransformation [15]: Compound NOT metabolized | Bacterial Biotransformation [16]: Compound NOT metabolized | Bacterial Biotransformation [17]: Compound metabolized | Bacterial Biotransformation [18]: Compound metabolized | Bacterial Biotransformation [19]: Compound metabolized | Bacterial Biotransformation [20]: Compound metabolized

COc1ccc(CCN(C)CCCC(C#N)(c2ccc(OC)c(OC)c2)C(C)C)cc1OC (stereo unspecified)
Bacterial Biotransformation [1]: Compound NOT metabolized | Bacterial Biotransformation [2]: Compound metabolized | Bacterial Biotransformation [3]: Compound NOT metabolized | Bacterial Biotransformation [4]: Compound metabolized | Bacterial Biotransformation [5]: Compound metabolized | Bacterial Biotransformation [6]: Compound NOT metabolized | Bacterial Biotransformation [7]: Compound metabolized | Bacterial Biotransformation [8]: Compound NOT metabolized | Bacterial Biotransformation [9]: Compound NOT metabolized | Bacterial Biotransformation [10]: Compound metabolized | Bacterial Biotransformation [11]: Compound metabolized | Bacterial Biotransformation [12]: Compound NOT metabolized | Bacterial Biotransformation [13]: Compound metabolized | Bacterial Biotransformation [14]: Compound metabolized | Bacterial Biotransformation [15]: Compound metabolized | Bacterial Biotransformation [16]: Compound metabolized | Bacterial Biotransformation [17]: Compound metabolized | Bacterial Biotransformation [18]: Compound metabolized | Bacterial Biotransformation [19]: Compound metabolized | Bacterial Biotransformation [20]: Compound metabolized

CCCCCCOC(=O)/N=C(/N)c1ccc(NCc2nc3cc(C(=O)N(CCC(=O)OCC)c4ccccn4)ccc3n2C)cc1.CS(=O)(=O)O [DABIGATRAN ETEXILATE MESYLATE]
Bacterial Biotransformation [1]: Compound NOT metabolized | Bacterial Biotransformation [2]: Compound NOT metabolized | Bacterial Biotransformation [3]: Compound NOT metabolized | Bacterial Biotransformation [5]: Compound NOT metabolized | Bacterial Biotransformation [6]: Compound NOT metabolized | Bacterial Biotransformation [7]: Compound NOT metabolized | Bacterial Biotransformation [10]: Compound NOT metabolized | Bacterial Biotransformation [11]: Compound NOT metabolized | Bacterial Biotransformation [12]: Compound NOT metabolized | Bacterial Biotransformation [13]: Compound NOT metabolized | Bacterial Biotransformation [14]: Compound NOT metabolized | Bacterial Biotransformation [15]: Compound NOT metabolized | Bacterial Biotransformation [16]: Compound NOT metabolized | Bacterial Biotransformation [17]: Compound NOT metabolized

O=c1[nH]c2ccccc2n1CCCN1CCC(n2c(=O)[nH]c3cc(Cl)ccc32)CC1 [DOMPERIDONE]
Bacterial Biotransformation [1]: Compound NOT metabolized | Bacterial Biotransformation [2]: Compound NOT metabolized | Bacterial Biotransformation [3]: Compound NOT metabolized | Bacterial Biotransformation [4]: Compound NOT metabolized | Bacterial Biotransformation [5]: Compound NOT metabolized | Bacterial Biotransformation [6]: Compound NOT metabolized | Bacterial Biotransformation [7]: Compound NOT metabolized | Bacterial Biotransformation [8]: Compound NOT metabolized | Bacterial Biotransformation [9]: Compound NOT metabolized | Bacterial Biotransformation [10]: Compound NOT metabolized | Bacterial Biotransformation [11]: Compound NOT metabolized | Bacterial Biotransformation [12]: Compound NOT metabolized | Bacterial Biotransformation [14]: Compound NOT metabolized | Bacterial Biotransformation [16]: Compound NOT metabolized | Bacterial Biotransformation [17]: Compound NOT metabolized | Bacterial Biotransformation [18]: Compound NOT metabolized | Bacterial Biotransformation [19]: Compound NOT metabolized

From ChEMBL document CHEMBL5724914, “Linking interpersonal differences in gut microbiota composition and drug biotransformation activity” (2024)
